The source of these data is patent USRE46792E1, “Oxazole compound and pharmaceutical composition” (Otsuka Pharmaceutical Co., Ltd., priority 2005, dated 2018).

One test concerns the target human PDE4D3 (PDE4D) (Homo sapiens (Human), UniProt Q08499). Nature of the test: Phosphodiesterase (PDE)4 inhibitory activity evaluation test ([3H]cAMP hydrolysis by PDE4D enzyme solution). In kind it is biochemical. The settings on record: recombinant human PDE4D3 expressed in COS-7 cells; [3H]cAMP substrate; 10 min at 30° C.; 2% DMSO. In a few lines:
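Human PDE4D3 expressed in COS-7 cells; cell supernatant used as enzyme at a dilution giving 10–30% cAMP turnover. Compounds (10-fold serial dilutions, 2% final DMSO) incubated with enzyme and 2 μM [3H]cAMP stock in 20 mM Tris-HCl pH 7.4 with MgCl2 for 10 min at 30° C. Reaction stopped by boiling.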

The subject of test [1] is TNF-α production in mouse peripheral blood mononuclear cells. Nature of the test: Inhibitory activity measurement on TNF-α production (LPS-stimulated mouse peripheral blood mononuclear cells, ELISA). In kind it is cell-based, mouse (male BALB/c). The settings on record: PBMC, LPS 1 μg/ml, 5 hours at 37° C., ELISA of culture supernatant. As to the method:
Inhibitory Activity Measurement on TNF-α Production
TNF-α production inhibitory activity was evaluated according to the following tests.
(1) Isolation of Mononuclear Cells from Mouse Peripheral Blood
Mononuclear cells were isolated from heparinized blood obtained from male BALB/c mice (Charles River Laboratories, Japan) by density gradient centrifugation using Lympholyte-M (Cedarlane Laboratories). Viable cell numbers in the peripheral blood mononuclear cells were counted using trypan blue dye, and prepared in cell culture medium (RPMI 1640 medium containing 10% FCS) to 1.25×10^6 cells/ml.
(2) Induction of TNF-α Production
Test compounds were dissolved in DMSO, and test compound solutions were diluted for use in cell culture media. 20 μl test compound solutions of different concentrations and 160 μl peripheral blood mononuclear cell suspensions were placed in a 96-well plate, and cultured for 30 minutes. 20 μl (final concentration 1 μg/ml) lipopolysaccharide (LPS) derived from E. coli (serotype 055:B5) was added thereto to induce THF-α production. The mixtures were then cultured at 37° C. for 5 hours, and the culture supernatant was removed from each well.
(3) Measurement of TNF-α Concentration
TNF-α concentrations in the culture supernatants were measured by ELISA (OptEIA™ Set Mouse TNF-α, BD Pharmingen). The IC50 values (concentration which produced 50% inhibition of TNF-α production) for the test compounds were determined with the Excel (Microsoft Excel 2000 SR-1) statistical package using regression analysis function.
For orientation: An ELISA detects its analyte on a solid surface through an enzyme-linked reagent.

human PDE4D3 (PDE4D), sequence (Q08499 other isoform, or with tags, fused parts or gaps): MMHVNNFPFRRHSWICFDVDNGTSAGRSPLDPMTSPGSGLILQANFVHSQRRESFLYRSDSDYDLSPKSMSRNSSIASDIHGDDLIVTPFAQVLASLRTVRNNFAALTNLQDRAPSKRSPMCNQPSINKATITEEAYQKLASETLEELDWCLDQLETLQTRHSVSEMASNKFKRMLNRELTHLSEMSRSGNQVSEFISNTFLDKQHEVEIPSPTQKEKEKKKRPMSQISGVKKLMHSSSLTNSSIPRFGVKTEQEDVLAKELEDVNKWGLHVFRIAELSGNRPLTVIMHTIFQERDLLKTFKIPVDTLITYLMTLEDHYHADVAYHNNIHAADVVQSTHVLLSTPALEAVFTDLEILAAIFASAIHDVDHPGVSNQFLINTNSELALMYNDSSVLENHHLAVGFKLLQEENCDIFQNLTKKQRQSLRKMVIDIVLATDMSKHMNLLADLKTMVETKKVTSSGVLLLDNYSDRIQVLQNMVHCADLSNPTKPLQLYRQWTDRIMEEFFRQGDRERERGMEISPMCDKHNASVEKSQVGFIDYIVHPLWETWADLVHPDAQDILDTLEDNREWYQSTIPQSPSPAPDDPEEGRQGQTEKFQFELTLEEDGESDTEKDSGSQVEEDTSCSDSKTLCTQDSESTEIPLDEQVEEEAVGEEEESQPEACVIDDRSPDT

The IC50 is the point on the concentration scale where inhibition reaches its midpoint. On to `COc1ccc(-c2nc(CCC(=O)c3ncccc3C)co2)cc1OC1C=CCCC1` (centres unmarked) [Example 157, 3-{2-[3-(2-cyclohexenyloxy)-4-methoxyphenyl]oxazol-4-yl}-1-(3-methylpyridin-2-yl)propan-1-one], for which the IC50 (on human PDE4D3 (PDE4D); in test [1]) was under 50 nM throughout. For `COc1ccc(-c2nc(CNC(=O)c3ncccc3C)co2)cc1OC1CCCC1` [Example 18, N-[2-(3-cyclopentyloxy-4-methoxyphenyl)oxazol-4-ylmethyl]-3-methylpicolinamide], the IC50 (at human PDE4D3 (PDE4D); in test [1]) was under 50 nM throughout. As to `COc1ccc(-c2nc(CCC(=O)c3ncccc3OC)co2)cc1OCC1CC1` [Example 126], the IC50 in test [1] was under 50 nM. For `C=CCOc1ccccc1C(=O)CCc1coc(-c2ccc(OC)c(OCC3CC3)c2)n1` [Example 177, 1-(2-allyloxyphenyl)-3-[2-(3-cyclopropylmethoxy-4-methoxyphenyl)oxazol-4-yl]propan-1-one], the IC50 (at human PDE4D3 (PDE4D); in test [1]) was under 50 nM each time. Regarding `CCCOc1cccnc1C(=O)NCc1coc(-c2ccc(OC)c(OCC3CC3)c2)n1` [Example 61], at human PDE4D3 (PDE4D), the IC50 was under 50 nM.

As to `COc1ccc(-c2nc(CCC(=O)c3ccccc3OC(C)C)co2)cc1OCC1CC1` [Example 208, 3-[2-(3-cyclopropylmethoxy-4-methoxyphenyl)oxazol-4-yl]-1-(2-isopropoxyphenyl)propan-1-one], the IC50 on human PDE4D3 (PDE4D) is under 50 nM. As to `C=CCOc1cc(-c2nc(CCC(=O)c3ccccc3OC)co2)ccc1OC` [Example 174, 3-[2-(3-allyloxy-4-methoxyphenyl)oxazol-4-yl]-1-(2-methoxyphenyl)propan-1-one], the IC50 at human PDE4D3 (PDE4D) was under 50 nM. With `COc1ccc(-c2nc(CNC(=O)c3ccccc3OC)co2)cc1OCC(C)C` [Example 63, N-[2-(3-isobutoxy-4-methoxyphenyl)oxazol-4-ylmethyl]-2-methoxybenzamide], at human PDE4D3 (PDE4D), the IC50 was under 50 nM.

Regarding `CCOc1ccccc1C(=O)NCc1coc(-c2ccc(OC(F)F)c(OCC3CC3)c2)n1` [Example 353, N-[2-(3-cyclopropylmethoxy-4-difluoromethoxyphenyl)oxazol-4-ylmethyl]-2-ethoxy benzamide], the IC50 on human PDE4D3 (PDE4D) was under 50 nM. Take `C=CCOc1cc(-c2nc(CNC(=O)c3ccccc3OCC)co2)ccc1OC(F)F` [Example 351, N-[2-(3-allyloxy-4-difluoromethoxyphenyl)oxazol-4-ylmethyl]-2-ethoxybenzamide]: at human PDE4D3 (PDE4D), the IC50 was under 50 nM. For `COc1ccc(-c2nc(CCC(=O)c3ccccc3OCC(F)F)co2)cc1OCC1CC1` [Example 283, 3-[2-(3-cyclopropylmethoxy-4-methoxyphenyl)oxazol-4-yl]-1-[2-(2,2-difluoroethoxy)phenyl]propan-1-one], on human PDE4D3 (PDE4D), the IC50 is under 50 nM. Regarding `COc1ccc(-c2nc(CNC(=O)c3c(F)cccc3OC)co2)cc1OCC1CC1` [Example 43, N-[2-(3-cyclopropylmethoxy-4-methoxyphenyl)oxazol-4-ylmethyl]-2-fluoro-6-methoxybenzamide], the IC50 (on human PDE4D3 (PDE4D); in test [1]) was under 50 nM throughout.

On to `CCOc1cc(-c2nc(CNC(=O)c3ccccc3OCC)co2)ccc1OC(F)F` [Example 349, N-[2-(4-difluoromethoxy-3-ethoxyphenyl)oxazol-4-ylmethyl]-2-ethoxybenzamide], for which the half-maximal inhibitory concentration (IC50) at human PDE4D3 (PDE4D) was under 50 nM.
